Source: patent US9399649B2, “Compounds for treating spinal muscular atrophy” (PTC Therapeutics Inc., priority 2012, dated 2016)

Columns and labels:
[1] = tested on: Smn protein; test: Smn protein assay in cultured cells (SMN HTRF); assay type: cell-based, human; conditions: SMA patient fibroblast cells (GM03813), 48 hours; for maximum fold (Fold) increase of Smn protein: 7-point concentration data, relative to vehicle control; for EC1.5x for Smn protein expression: 7-point concentration curve, concentration producing 1.5 times Smn protein vs DMSO vehicle
Experimental: The SMN HTRF (homogeneous time resolved fluorescence) assay is used to quantify the level of Smn protein in SMA patient fibroblast cells treated with test compounds.
Cells are thawed and cultured in DMEM-10% FBS for 72 hours. Cells are trypsinized, counted and re-suspended to a concentration of 25,000 cells/mL in DMEM-10% FBS. The cell suspensions are plated at 5,000 cells per well in a 96 well microtiter plate and incubated for 3 to 5 hours. […] Test compounds are serially diluted 3.16-fold in 100% DMSO to generate a 7-point concentration curve. 1 μL of test compound solution is transferred to cell-containing wells and cells are incubated for 48 hours in a cell culture incubator (37° C., 5% CO2, 100% relative humidity). Triplicate samples are set up for each test compound concentration. After 48 hours, the supernatant is removed from the wells and 25 μL of the RIPA lysis buffer, containing protease inhibitors, is added to the wells and incubated with shaking at room temperature for 1 hour. 25 μL of the diluent is added and then 35 μL of the resulting lysate is transferred to a 384-well plate, where each well contains 5 μL of the antibody solution (1:100 dilution of anti-SMN d2 and anti-SMN kryptate in SMN reconstitution buffer). The plate is centrifuged for 1 minute to bring the solution to the bottom of the wells, then incubated overnight at room temperature. Fluorescence for each well of the plate at 665 nm and 620 nm is measured on an EnVision multilabel plate reader (Perkin-Elmer).
The normalized fluorescence signal is calculated for each sample, Blank and vehicle control well by dividing the signal at 665 nm by the signal at 620 nm. Normalizing the signal accounts for possible fluorescence quenching due to the matrix effect of the lysate. The ΔF value (a measurement of Smn protein abundance as a percent value) for each sample well is calculated by subtracting the normalized average fluorescence for the Blank control wells from the normalized fluorescence for each sample well, then dividing this difference by the normalized average fluorescence for the Blank control wells and multiplying the resulting value by 100. The ΔF value for each sample well represents the Smn protein abundance from test compound-treated samples. The ΔF value for each sample well is divided by the ΔF value for the vehicle control wells to calculate the fold increase in Smn protein abundance relative to the vehicle control.

[2] = tested on: full length SMN2 minigene mRNA containing SMN2 exon 7; test: SMN2 minigene mRNA splicing RT-qPCR assay in cultured cells; assay type: cell-based, human; conditions: Homo sapiens, HEK293-H; HEK293H cells stably transfected with SMN2-A minigene, 24 hours, 7-point concentration curve; concentration giving 1.5-fold full length SMN2 mRNA vs vehicle; read-out: EC1.5x for production of full length SMN2 mRNA
Experimental: The reverse transcription-quantitative PCR-based (RT-qPCR) assay is used to quantify the level of the full length SMN2 minigene mRNA containing SMN2 exon 7 in a HEK293H cell line stably transfected with said minigene and treated with a test compound.
HEK293H cells stably transfected with the SMN2-A minigene construct described above (10,000 cells/well) are seeded in 200 ut, of cell culture medium (DMEM plus 10% FBS, with 200 μg/mL hygromycin) in 96-well flat-bottom plates and the plate is immediately swirled to ensure proper dispersal of cells, forming an even monolayer of cells. Cells are allowed to attach for at least 4-6 hours. Test compounds are serially diluted 3.16-fold in 100% DMSO to generate a 7-point concentration curve. A solution of test compound (1 μL, 200× in DMSO) is added to each cell-containing well and the plate is incubated for 24 hours in a cell culture incubator (37° C., 5% CO2, 100% relative humidity). 2 replicates are prepared for each test compound concentration. The cells are then lysed in Cells-To-Ct lysis buffer and the lysate is stored at −80° C.
Primer SMN Forward A (SEQ ID NO. 1) hybridizes to a nucleotide sequence in exon 7 (nucleotide 22 to nucleotide 40), primer SMN Reverse A (SEQ ID NO. 2) hybridizes to a nucleotide sequence in the coding sequence of Firefly luciferase, SMN Probe A (SEQ ID NO. 3) hybridizes to a nucleotide sequence in exon 7 (nucleotide 50 to nucleotide 54) and exon 8 (nucleotide 1 to nucleotide 21). The combination of these three oligonucleotides detects only SMN1 or SMN2 minigenes (RT-qPCR) and will not detect endogenous SMN1 or SMN2 genes.
The SMN forward and reverse primers are used at final concentrations of 0.4 μM. The SMN probe is used at a final concentration of 0.15 μM. The GAPDH primers are used at final concentrations of 0.2 μM and the probe at 0.15 μM.
The SMN2-minigene GAPDH mix (15 μL total volume) is prepared by combining 7.5 μL of 2×RT-PCR buffer, 0.4 μL of 25×RT-PCR enzyme mix, 0.75 μL of 20×GAPDH primer-probe mix, 4.0075 μL of water, 2 μL of 10-fold diluted cell lysate, 0.06 μL of 100 μM SMN forward primer, 0.06 μL of 100 μM SMN reverse primer, and 0.225 μL of 100 μM SMN probe.
PCR is carried out at the following temperatures for the indicated time: Step 1: 48° C. (15 min); Step 2: 95° C. (10 min); Step 3: 95° C. (15 sec); Step 4: 60° C. (1 min); then repeat Steps 3 and 4 for a total of 40 cycles.
Each reaction mixture contains both SMN2-A minigene and GAPDH primersprobe sets (multiplex design), allowing simultaneous measurement of the levels of two transcripts.
Two SMN spliced products are generated from the SMN2 minigene. The first spliced product containing exon 7, corresponding to full length SMN2 mRNA, is referred to herein using the term “SMN2 minigene FL.” The second spliced product lacking exon 7 is referred to herein using the term “SMN2 minigene Δ7.”
The increase of SMN2 minigene FL mRNA relative to that in cells treated with vehicle control is determined from real-time PCR data using a modified ΔΔCt method (as described in Livak and Schmittgen, Methods, 2001, 25:402-8). The amplification efficiency (E) is calculated from the slope of the amplification curve for SMN2 minigene FL and GAPDH individually. The abundances of SMN2 minigene FL and GAPDH are then calculated as (1+E)^−Ct, where Ct is the threshold value for each amplicon. The abundance of SMN2 minigene FL is normalized to GAPDH abundance. The normalized SMN2 minigene FL abundance from test compound-treated samples is then divided by normalized SMN2 minigene FL abundance from vehicle-treated cells to determine the level of SMN2 FL mRNA relative to vehicle control.

Row | Structure (SMILES) | melting point | maximum fold (Fold) increase of Smn protein [1] | EC (1.5-fold) [2] [µM] | EC1.5x for Smn protein expression [1]
1 | O=c1oc(-c2ccccn2)cc2ccc(N3CCNCC3)cc12 [Cpd 1, 7-(piperazin-1-yl)-3-(pyridin-2-yl)-1H-isochromen-1-one] | 179 to 181 °C | ** (a fold increase between >1.2 and ≦1.35 is indicated by two stars (**)) | 1 to 3 | –
2 | O=c1oc(-c2ccsc2)cc2ccc(N3CCNCC3)cc12 [Cpd 2, 7-(piperazin-1-yl)-3-(thiophen-3-yl)-1H-isochromen-1-one] | 240 °C (dec.) | ** (a fold increase between >1.2 and ≦1.35 is indicated by two stars (**)) | 0.3 to 1 | –
3 | COc1ccc(-c2cc3ccc(N4CCNCC4)cc3c(=O)o2)cc1OC [Cpd 3, 3-(3,4-dimethoxyphenyl)-7-(piperazin-1-yl)-1H-isochromen-1-one] | 142 to 143 °C | **** (a fold increase between >1.5 and ≦1.65 is indicated by four stars (****)) | ≤ 0.1 | *** (an EC1.5× between >0.3 nM and ≦1 nM is indicated by three stars (***))
4 | CN1CCN(c2ccc3cc(-c4ccccn4)oc(=O)c3c2)CC1 [Cpd 4, 7-(4-methylpiperazin-1-yl)-3-(pyridin-2-yl)-1H-isochromen-1-one] | 174 to 176 °C | * (A maximum fold increase of ≦1.2 is indicated by one star (*)) | 3 to 30 | –
5 | C[C@@H]1CN(c2ccc3cc(-c4ccccn4)oc(=O)c3c2)C[C@H](C)N1 [Cpd 5, 7-[(3R,5S)-3,5-dimethylpiperazin-1-yl]-3-(pyridin-2-yl)-1H-isochromen-1-one] | 168 to 170 °C | * (A maximum fold increase of ≦1.2 is indicated by one star (*)) | 1 to 3 | –
6 | COc1ccc(-c2cc3ccc(N4CCN(C)CC4)cc3c(=O)o2)cc1OC [Cpd 16, 3-(3,4-dimethoxyphenyl)-7-(4-methylpiperazin-1-yl)-1H-isochromen-1-one] | – | *** (a fold increase between >1.35 and ≦1.5 is indicated by three stars (***)) | 0.3 to 1 | –
7 | Cc1cn2cc(-c3cc4ccc(N5CCNCC5)cc4c(=O)o3)nc2c(C)n1 [Cpd 62, 3-(6,8-dimethylimidazo[1,2-a]pyrazin-2-yl)-7-(piperazin-1-yl)-1H-isochromen-1-one] | – | ***** (a fold increase >1.65 is indicated by five stars (*****)) | ≤ 0.1 | **** (an EC1.5×≦0.3 nM is indicated by four stars (****))
8 | Cc1cn2cc(-c3cc4ccc(N5CCN6CCC[C@@H]6C5)cc4c(=O)o3)nc2c(C)n1 [Cpd 70, 3-(6,8-dimethylimidazo[1,2-a]pyrazin-2-yl)-7-[(8aR)-hexahydropyrrolo[1,2-a]pyrazin-2(1H)-yl]-1H-isochromen-1-one] | – | **** (a fold increase between >1.5 and ≦1.65 is indicated by four stars (****)) | 0.1 to 0.3 | *** (an EC1.5× between >0.3 nM and ≦1 nM is indicated by three stars (***))
9 | Cc1cn2cc(-c3cc4ccc(C5CCN(C6CCC6)CC5)cc4c(=O)o3)nc2c(C)n1 [Cpd 118, 7-(1-cyclobutylpiperidin-4-yl)-3-(6,8-dimethylimidazo[1,2-a]pyrazin-2-yl)-1H-isochromen-1-one] | – | **** (a fold increase between >1.5 and ≦1.65 is indicated by four stars (****)) | ≤ 0.1 | **** (an EC1.5×≦0.3 nM is indicated by four stars (****))
10 | Cc1cn2cc(-c3cc4ccc(N5C[C@@H](C)N(C6CCC6)[C@@H](C)C5)cc4c(=O)o3)nc2cn1 [Cpd 132, 7-[(3R,5S)-4-cyclobutyl-3,5-dimethylpiperazin-1-yl]-3-(6-methylimidazo[1,2-a]pyrazin-2-yl)-1H-isochromen-1-one] | – | ***** (a fold increase >1.65 is indicated by five stars (*****)) | ≤ 0.1 | **** (an EC1.5×≦0.3 nM is indicated by four stars (****))
11 | Cc1cn2cc(-c3cc4ccc(N5CCN(CCO)[C@H](C)C5)cc4c(=O)o3)nc2cn1 [Cpd 133, 7-[(3R)-4-(2-hydroxyethyl)-3-methylpiperazin-1-yl]-3-(6-methylimidazo[1,2-a]pyrazin-2-yl)-1H-isochromen-1-one] | – | ***** (a fold increase >1.65 is indicated by five stars (*****)) | ≤ 0.1 | **** (an EC1.5×≦0.3 nM is indicated by four stars (****))
12 | Cc1cn2cc(-c3cc4ccc(N5CCN(CCO)[C@@H](C)C5)cc4c(=O)o3)nc2c(C)n1 [Cpd 134, 3-(6,8-dimethylimidazo[1,2-a]pyrazin-2-yl)-7-[(3S)-4-(2-hydroxyethyl)-3-methylpiperazin-1-yl]-1H-isochromen-1-one] | – | ***** (a fold increase >1.65 is indicated by five stars (*****)) | ≤ 0.1 | **** (an EC1.5×≦0.3 nM is indicated by four stars (****))
13 | CCc1nc(C)cn2cc(-c3cc4ccc(N5CCNCC5)cc4c(=O)o3)nc12 [Cpd 150, 3-(8-ethyl-6-methylimidazo[1,2-a]pyrazin-2-yl)-7-(piperazin-1-yl)-1H-isochromen-1-one] | – | ***** (a fold increase >1.65 is indicated by five stars (*****)) | ≤ 0.1 | **** (an EC1.5×≦0.3 nM is indicated by four stars (****))
